Laboratory results published in patent publication US11123350B2, “Metal delivery agents and therapeutic uses of the same” (THE UNIVERSITY OF MELBOURNE, priority 2006, dated 2021).

What was measured:
G93A-SOD1 mice = conditions: other reported pharmacological treatments (literature); cited from earlier work
A30P cells = assay: Dopamine induced cell death, A30P cells (MTT); type: cell-based

SMILES | Increased Life Span (G93A-SOD1 mice) | % recovery (A30P cells; Dopamine 500 μm + complex 0.01 μM) [%] | % recovery (A30P cells; Dopamine 500 μm + complex 0.1 μM) [%]
O=C1NC(=O)C(c2ccc(-c3ccccc3)cc2)(N2CCN(c3ccc([N+](=O)[O-])cc3)CC2)C(=O)N1 [Ro 28-2653] | 13 days |  | 
CC(=O)Oc1ccccc1C(=O)O [Lysine Acetyl salicylate] | No effect |  | 
CN=C([S-])N/N=C(C)/C(C)=N/NC([S-])=NC.[64Cu+2] [Complex A2, copper(II)diacetylbis(N(4)-methylthiosemicarbazone)] |  | 105.90 | 97.77
NCC1(CC(=O)O)CCCCC1 [Gabapentin] | No effect |  | 
